Measurements taken from patent publication US7550487B2, “Pyrrolidine-3,4-dicarboxamide derivatives” (Hoffmann-La Roche Inc., priority 2004, dated 2009).

Target: T1, human factor Xa (Homo sapiens, UniProt P00742)
T1 construct: purchased Enzyme Research Laboratories
Experiment: Factor Xa chromogenic peptide substrate assay (S-2222)
Assay type: biochemical
Description: Factor Xa activity was measured spectrophotometrically in microtiter plates in a final volume of 150 μl using the following conditions: Inhibition of human factor Xa (Enzyme Research Laboratories) was tested at an enzyme concentration of 3 nM using the chromogenic substrate S-2222 (Chromogenix AB, Mölndal, Sweden) at 200 nM. The reaction kinetics of the enzyme and the substrate were linear with both time and the enzyme concentration. The inhibitors were dissolved in DMSO and tested at various concentrations up to 100 μM. The inhibitors were diluted using HNPT buffer consisting of HEPES 100 mM, NaCl 140 mM, PEG 6000 0.1% and Tween 80 0.02%, pH 7.8. […] The velocity of the reaction was determined by the autoreader from the slope of the linear regression fit to 7 time points (1 minute). The initial velocity for each inhibitor concentration was determined by the slope of at least 4 time points in the linear phase by a linear regression fit (mOD/min^2). Apparent dissociation constants Ki were calculated according to Cheng and Prusoff [Cheng, Y. C.; Prusoff, W. H. Relationship between the inhibition constant (Ki) and the concentration of the inhibitor that causes 50 percent inhibition (IC50) of an enzyme reaction. Biochem. Pharmacol. 1973, 22, 3099-3108.] based on the IC50 and the respective Km, determined previously (Ki=IC50/(1+S/Km)). […]

T1 sequence (P00742 235-488 limits assumed): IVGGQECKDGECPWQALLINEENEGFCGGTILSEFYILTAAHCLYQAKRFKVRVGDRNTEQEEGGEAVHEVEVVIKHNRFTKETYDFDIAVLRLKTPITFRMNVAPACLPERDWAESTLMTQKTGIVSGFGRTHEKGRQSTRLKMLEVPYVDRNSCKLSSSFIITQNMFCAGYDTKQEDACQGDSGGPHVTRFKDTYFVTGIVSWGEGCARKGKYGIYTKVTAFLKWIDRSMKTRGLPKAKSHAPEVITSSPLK
T1 sequence (P00742 41-179 partner limits assumed): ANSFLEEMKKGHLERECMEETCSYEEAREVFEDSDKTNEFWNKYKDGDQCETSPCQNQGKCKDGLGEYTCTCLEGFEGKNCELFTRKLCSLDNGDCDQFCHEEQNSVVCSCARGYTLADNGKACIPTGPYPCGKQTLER

CNC(=O)CN1C[C@H](C(=O)Nc2ccc(Cl)cc2)[C@@H](C(=O)Nc2ccc(-n3ccccc3=O)cc2F)C1 [Example 26, (3R,4R)-1-Methylcarbamoylmethyl-pyrrolidine-3,4-dicarboxylic acid 3-[(4-chloro-phenyl)-amide] 4-{[2-fluoro-4-(2-oxo-2H-pyridin-1-yl)-phenyl]-amide}]
Ki: 22 nM
